Test results reported in publication PMC12586598, “A novel long-acting C5a-blocking cyclic peptide prevents sepsis-induced organ dysfunction via effective blockade of the inflammatory cascade” (Signal Transduction and Targeted Therapy, 2025).
Where a SMILES comes first, the peptide text is derived from it.

Assays:
mouse neutrophils = assay: C5a-triggered chemotaxis assay, mouse neutrophils (IncuCyte); type: cell-based; details: 10 ng to 1 μg per well, 24 h
Protocol: The chemotaxis assay in this study was monitored and quantified by the IncuCyte ZOOM® Live-Cell Imaging System. The y-axis label “total area normalized to initial area in each group” in Fig. 3k, m represent the ratio of the total cell area at each time point to the initial area (0 h) within the same field of view. A higher ratio indicates […] cell migration activity.
One hundred nanograms of human C5a protein (ACROBiosystems, Beijing, China) was preincubated with linear or cyclic peptides at the indicated concentrations (10 ng, 100 ng, or 1 μg) in 1640 complete culture medium for 30 min. PMNs isolated by flow cytometric sorting for chemotaxis assays were purchased from Oribiotech Co., Ltd. (Shanghai, China). A total of 1 × 10^4 cells were added to the upper chamber of 96-well cell chemotaxis plates (Sartorius, Germany) and allowed to migrate at 37 °C for 24 h. The chemotactic response of neutrophils toward C5a with or without C5a-blocking peptides was quantified and analyzed via an IncuCyte ZOOM® Live-Cell Imaging System (Sartorius, Germany). The chemotactic response of mouse neutrophils was assessed following the established protocol for PMNs.

CLP-induced septic mice [1] = assay: Inflammatory factors and chemokines in plasma, Luminex, CLP mice; type: in vivo, mouse
Protocol: Twenty-four hours later, whole blood and PLF were collected under anesthesia. The plasma and PLF supernatants were further isolated via centrifugation (3000 × g, 10 min, 4 °C) and subjected to inflammatory factor and chemokine profiling via the Luminex® multiplex […] Biotechnologies, Shanghai, China). The percent inhibition was calculated relative to that of the sham group (set as 0%).

PMNs = assay: Neutrophil phagocytosis (BioParticles and live bacteria), flow cytometry; type: cell-based, human; details: 6 h hC5a stimulation; E. coli and S. aureus BioParticles and live bacteria
Protocol: To assess the phagocytic function of neutrophils, PMNs were stimulated with hC5a or hC5a/Cp1 complexes for 6 h, followed by incubation with 20 μL of Red E. coli BioParticles™ or Green S. aureus BioParticles™ (Invitrogen, USA) at 37 °C for 0.5 h in the dark.[44] After being washed with precooled PBS and centrifuged (40 × g, 5 min), the samples were subjected to flow cytometric quantification for phagocytosis analysis. For the live bacterial phagocytosis assay, 2 × 10^5 PMNs were prestimulated with 100 ng of hC5a or hC5a/Cp1 complexes for 6 h. The PMNs were incubated with DMAO-labeled E. coli (ATCC 25922) or S. aureus (ATCC 29213) at an MOI (multiplicity of infection) of 10 for 0.5 h at 37 °C in the dark, followed by pretreatment with precooled gentamicin (50 μg/mL). The intracellular fluorescence intensity of PMNs was quantified via flow cytometry.

CLP-induced septic mice [2] = assay: Organ function, coagulation and lung histology in CLP mice; type: in vivo, mouse; details: 24 h post-CLP surgery
Protocol: (§1) The cecal ligation and puncture (CLP) model was established in male C57BL/6 mice (9-10 weeks old). Briefly, a midline laparotomy was performed to exteriorize the cecum under general anesthesia. The cecum was ligated at the distal three-quarters using sutures. Subsequently, a single through-and-through puncture was made in the ligated segment using a 22-gaμge needle, followed by small volume of fecal content was gentle extrusion. The cecum was then repositioned within abdominal cavity, and the laparotomy incision was closed in layers. All animals were administered 1 mL of sterile saline for postoperative fluid resuscitation. Sham-operated controls underwent identical surgical procedures without cecal ligation or puncture. In this work, mice received administration via intravenous injection 1 hour after CLP surgery. The animal mortality was determined by the presence of confirmed death. […] Blood samples were collected 24 hours after CLP-modeling for hematological analysis (Mindray BC-60R Vet) and biochemical analysis (Mindray BS-240 Vet, China), endothelial injury analysis (Njjcbio, Nanjing) and coagulation analysis (Legene, Beijing). Subsequently, mice were sacrificed to collect the main organs for morphological and pathological analysis.

CLP-treated mice = assay: Response to secondary infection, short-term exposure: LPS stimulation of whole blood; type: in vivo, mouse; details: blood taken 24 h post-CLP surgery, 1 μg LPS
Protocol: To evaluate the impact of short-term (24 h) drug exposure on the secondary infection response. Whole blood samples were collected from each group at 24 h post-CLP surgery and stimulated with 1 μg of LPS. The IL-6 levels at 0 h, 2 h, and 4 h poststimulation were quantified via an ELISA kit.

CLP-induced septic mice [3] = assay: Bacterial burden in blood (CFU) of CLP mice; type: in vivo, mouse
Protocol: Whole blood samples were aseptically dropped onto nutrient agar plates. Glass beads were added, and the samples were rocked horizontally to ensure the uniform distribution of blood samples. The inoculated plates were incubated at 37 °C for 24 h, after which colony-forming units (CFUs) were counted. The colonies on the culture plates were counted via ProtoCOL 3 HD (Synbiosis, UK).

mouse C5 = target: T1, mouse C5 (Mus musculus, UniProt P06684); assay: SPR binding affinity assay, immobilized mouse C5
T1 construct: purchased ACROBiosystems
T1 sequence (P06684 19-1680): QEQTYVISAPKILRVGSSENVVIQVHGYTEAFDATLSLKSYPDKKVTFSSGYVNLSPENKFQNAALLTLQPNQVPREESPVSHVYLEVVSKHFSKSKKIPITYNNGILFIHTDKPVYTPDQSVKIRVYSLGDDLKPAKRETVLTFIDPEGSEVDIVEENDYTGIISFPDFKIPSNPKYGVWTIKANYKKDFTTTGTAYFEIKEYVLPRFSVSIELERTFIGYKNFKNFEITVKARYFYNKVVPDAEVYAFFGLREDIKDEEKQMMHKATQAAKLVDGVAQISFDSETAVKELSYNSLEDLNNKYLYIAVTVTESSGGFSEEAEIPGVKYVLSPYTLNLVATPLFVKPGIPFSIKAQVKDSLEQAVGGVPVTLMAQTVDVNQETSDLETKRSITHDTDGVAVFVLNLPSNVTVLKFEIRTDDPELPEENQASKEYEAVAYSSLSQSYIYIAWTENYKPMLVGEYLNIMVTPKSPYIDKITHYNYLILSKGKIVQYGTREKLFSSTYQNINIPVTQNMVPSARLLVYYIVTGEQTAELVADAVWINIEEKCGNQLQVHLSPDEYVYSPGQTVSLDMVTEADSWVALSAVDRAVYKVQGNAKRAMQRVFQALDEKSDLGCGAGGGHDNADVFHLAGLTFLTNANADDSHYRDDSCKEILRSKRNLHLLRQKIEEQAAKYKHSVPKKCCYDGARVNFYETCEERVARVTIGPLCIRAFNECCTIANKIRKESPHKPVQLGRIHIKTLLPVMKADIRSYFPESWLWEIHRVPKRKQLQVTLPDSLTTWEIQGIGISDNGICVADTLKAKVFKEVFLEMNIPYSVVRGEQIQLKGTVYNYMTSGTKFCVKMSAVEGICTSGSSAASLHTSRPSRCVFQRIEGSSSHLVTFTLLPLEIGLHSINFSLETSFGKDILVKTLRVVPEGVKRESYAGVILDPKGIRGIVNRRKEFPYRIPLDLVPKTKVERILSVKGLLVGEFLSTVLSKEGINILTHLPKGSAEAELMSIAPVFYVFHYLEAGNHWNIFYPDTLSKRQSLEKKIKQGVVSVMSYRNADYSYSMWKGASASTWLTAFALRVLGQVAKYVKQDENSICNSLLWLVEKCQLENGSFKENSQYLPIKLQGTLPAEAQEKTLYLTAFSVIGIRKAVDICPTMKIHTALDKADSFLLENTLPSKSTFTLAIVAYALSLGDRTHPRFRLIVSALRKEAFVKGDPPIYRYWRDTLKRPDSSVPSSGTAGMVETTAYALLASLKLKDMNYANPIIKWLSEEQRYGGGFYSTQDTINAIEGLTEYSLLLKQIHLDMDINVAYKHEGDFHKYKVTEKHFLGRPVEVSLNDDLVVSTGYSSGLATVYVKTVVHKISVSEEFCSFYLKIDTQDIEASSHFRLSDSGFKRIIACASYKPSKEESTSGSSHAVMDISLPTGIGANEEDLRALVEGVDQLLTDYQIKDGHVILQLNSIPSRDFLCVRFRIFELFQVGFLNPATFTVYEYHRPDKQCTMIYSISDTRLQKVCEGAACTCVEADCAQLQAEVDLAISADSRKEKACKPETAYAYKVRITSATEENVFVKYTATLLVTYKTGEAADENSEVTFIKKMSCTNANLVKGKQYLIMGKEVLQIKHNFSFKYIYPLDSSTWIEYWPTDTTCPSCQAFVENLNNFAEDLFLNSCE
Protocol: Surface plasmon resonance (SPR) analysis was conducted using Biacore 2000 system (GE Healthcare, Germany) at 37°C in running buffer (20 mM Tris-HCl, pH 7.4, 150 mM NaCl, 5 mM KCl, 1 mM MgCl₂, 1 mM CaCl₂). The CM5 sensor chips (GE Healthcare) were activated with NHS/EDC, followed by immobilization of mouse C5a (ACROBiosystems, Beijing, China), human C5a (ACROBiosystems, Beijing, China), mouse C5 (ACROBiosystems, Beijing, China) or mouse C5a-desArg (MCE, Shanghai, China). The peptide-protein interactions were characterized using a concentration-gradient approach (low to high) with a continuous flow rate of 30 μL/min (150 s injection duration). Between analyte concentrations, the sensor surface was regenerated with 10 mM glycine-HCl (pH 2.0; 5 min treatment). Binding and dissociation constants were obtained by globally fitting the data to a 1:1 Langmuir binding model using a Biacore Insight evaluation software (Cytiva, USA).

CLP-induced septic mice [4] = assay: Kaplan-Meier survival of CLP model mice; type: in vivo, mouse
Protocol: as §1

[5] = 100 μg/20 g, 24 h after CLP surgery

SMILES: CSCC[C@@H]1NC(=O)[C@@H]2CCCN2C(=O)[C@H](CCSC)NC(=O)[C@H](CO)NC(=O)[C@H](Cc2c[nH]cn2)NC(=O)CNC(=O)[C@H](CO)NC(=O)[C@H](Cc2ccccc2)NC(=O)[C@H](CCCNC(=N)N)NC(=O)[C@H](CCC(=O)O)NC(=O)[C@H](Cc2ccccc2)NC(=O)[C@H](C(C)C)NC1=O [Cp1] (cyclo(HSMPMVFERFSG))
- suppression of C5a-driven recruitment of mouse neutrophils (mouse neutrophils): dose-dependently suppressed
- decrease in plasma CCL2 level (CLP-induced septic mice [1]; [5]): 21.7 fold
- decrease in plasma CCL3 level (CLP-induced septic mice [1]; [5]): 81.9 fold
- decrease in plasma CCL4 level (CLP-induced septic mice [1]; [5]): 24.8 fold
- decrease in plasma CCL5 level (CLP-induced septic mice [1]; [5]): 18.6 fold
- decrease in plasma CCL7 level (CLP-induced septic mice [1]; [5]): 102.3 fold
- decrease in plasma CXCL1 level (CLP-induced septic mice [1]; [5]): 61.7 fold
- decrease in plasma CXCL5 level (CLP-induced septic mice [1]; [5]): 4.3 fold
- decrease in plasma IL-1β level vs CLP group (CLP-induced septic mice [1]; [5]): 94%
- decrease in plasma IL-6 level vs CLP group (CLP-induced septic mice [1]; [5]): 99%
- decrease in plasma TNF-α level vs CLP group (CLP-induced septic mice [1]; [5]): 86%
- reduction in plasma IL-1β level (CLP-induced septic mice [1]; 100 μg/20 g, Luminex (Fig. 4a)): 18.6 fold
- expression of inflammatory factors and chemokines in plasma, high dose (CLP-induced septic mice [1]; 300 μg of Cp1): effectively suppressed
- plasma IL-17A, IFN-γ, GM-CSF, and CX3CL1 levels (CLP-induced septic mice [1]; 24 h after CLP surgery): significantly decreased
- lowest effective dose with significant pharmacological activity (CLP-induced septic mice [1]; preliminary titrations): 100 μg
- effect on C5a-induced phagocytic impairment in PMNs (PMNs): effectively mitigated C5a-induced phagocytic impairment
- LDH and LAC levels (CLP-induced septic mice [2]; 100 μg/20 g): marked reduction
- coagulation function parameters (PT, APTT, TT, Fbg) (CLP-induced septic mice [2]; 100 μg/20 g): attenuated the sepsis-induced changes in the clotting and fibrinolytic systems
- serum ALT and AST levels (liver function) (CLP-induced septic mice [2]; 100 μg/20 g): effectively mitigated the increase
- serum UREA and CREA levels (kidney injury) (CLP-induced septic mice [2]; 100 μg/20 g, vs untreated CLP mice): significantly lower
- lung injury, H&E pathological sections (CLP-induced septic mice [2]): significantly ameliorated sepsis-induced pulmonary vascular leakage
- IL-6 level at 2 h post-LPS stimulation vs CLP control group (CLP-treated mice): obviously increased IL-6 levels
- reduction of bacterial burden (CFUs/mL in blood) vs CLP (CLP-induced septic mice [3]; 100 μg Cp1, 24 h post-CLP): 93%
- reduction of bacterial burden (CFUs/mL in blood) vs CLP (CLP-induced septic mice [3]; 300 μg Cp1, 24 h post-CLP): 86%
- kon (mouse C5; pH 7.4, read-out: Ka vs mC5 (SPR)): 105000 M⁻¹ s⁻¹
- koff (mouse C5; read-out: Kd (dissociation rate) vs mC5 (SPR)): 0.0745 s⁻¹
- improvement in the median survival time vs untreated CLP group (CLP-induced septic mice [4]; mouse, in vivo): 300%
- 7-day survival rate (CLP-induced septic mice [4]; single administration 100 μg/20 g, n = 10): 60%
